According to patent US20060148858A1, “1, 2-Azole derivatives with hypoglycemic and hypolipidemic activity” (priority 2002, published 2006):

melting point | SMILES
134 to 135 °C | CCC(C)c1nn(-c2ccc(C(F)(F)F)cn2)cc1CCCOc1c(C)cccc1CC(=O)O (centres unmarked) [Example 219, [3-methyl-2-(3-{3-(1-methylpropyl)-1-[5-(trifluoromethyl)-2-pyridyl]-1H-pyrazol-4-yl}propoxy)phenyl]acetic acid]
144 to 145 °C | CC(C)c1nn(-c2ccc(C(F)(F)F)cn2)cc1CCCOc1c(C#N)cccc1CC(=O)O [Example 231, [3-cyano-2-(3-{3-isopropyl-1-[5-(trifluoromethyl)-2-pyridinyl]-1H-pyrazol-4-yl}propoxy)phenyl]acetic acid]
146 to 147 °C | CCCc1nn(-c2ccc(C(F)(F)F)cn2)cc1CCCOc1c(C#N)cccc1CC(=O)O [Example 233, [3-cyano-2-(3-{3-propyl-1-[5-(trifluoromethyl)-2-pyridinyl]-1H-pyrazol-4-yl}propoxy)phenyl]acetic acid]
142 to 143 °C | CCc1cccc(CC(=O)O)c1OCCCc1cn(-c2ccc(Cl)cn2)nc1C(C)C [Example 243, (2-{3-[1-(5-chloro-2-pyridinyl)-3-isopropyl-1H-pyrazol-4-yl]propoxy}-3-ethylphenyl)acetic acid]
93 to 95 °C | CCc1cccc(CC(=O)O)c1OCCCc1cn(-c2ncc(C(F)(F)F)cc2Cl)nc1C(C)C [Example 249, [2-(3-{1-[3-chloro-5-(trifluoromethyl)-2-pyridinyl]-3-isopropyl-1H-pyrazol-4-yl}propoxy)-3-ethylphenyl]acetic acid]
93 to 95 °C | CCc1cccc(CC(=O)O)c1OCCCc1cn(-c2ncc(Cl)cc2Cl)nc1C(C)C [Example 251, (2-{3-[1-(3,5-dichloro-2-pyridinyl)-3-isopropyl-1H-pyrazol-4-yl]propoxy}-3-ethylphenyl)acetic acid]
138 to 139 °C | CCCc1cn(CC(=O)O)nc1OCCCc1cn(-c2ccc(C(F)(F)F)cn2)nc1CCC [Example 254, [4-propyl-3-(3-{3-propyl-1-[5-(trifluoromethyl)-2-pyridyl]-1H-pyrazol-4-yl}propoxy)-1H-pyrazol-1-yl]acetic acid]
164 to 165 °C | CCCc1nn(-c2ccc(C(F)(F)F)cn2)cc1CCCOc1cc(CCC(=O)O)n(C2CCCCC2)n1 [Example 256, 3-[1-cyclohexyl-3-(3-{3-propyl-1-[5-(trifluoromethyl)-2-pyridyl]-1H-pyrazol-4-yl}propoxy)-1H-pyrazol-5-yl]propanoic acid]
89 to 90 °C | CCOc1nn(-c2ccc(C(F)(F)F)cn2)cc1CCCOc1cc(CCC(=O)O)n(C2CCCCC2)n1 [Example 257, 3-[1-cyclohexyl-3-(3-{3-ethoxy-1-[5-(trifluoromethyl)-2-pyridyl]-1H-pyrazol-4-yl}propoxy)-1H-pyrazol-5-yl]propanoic acid]
190 to 191 °C | O=C(O)CCc1cc(OCCCc2cn(-c3ccc(C(F)(F)F)cn3)nc2C2CCCCC2)nn1C1CCCCC1 [Example 261, 3-[1-cyclohexyl-3-(3-{3-cyclohexyl-1-[5-(trifluoromethyl)-2-pyridyl]-1H-pyrazol-4-yl}propoxy)-1H-pyrazol-5-yl]propanoic acid]
166 to 167 °C | CC(C)c1nn(-c2ccc(C(F)(F)F)cn2)cc1CCCOc1cc(CCC(=O)O)n(C2CCCCC2)n1 [Example 262, 3-[1-cyclohexyl-3-(3-{3-isopropyl-1-[5-(trifluoromethyl)-2-pyridyl]-1H-pyrazol-4-yl}propoxy)-1H-pyrazol-5-yl]propanoic acid]
130 to 131 °C | CC(C)c1nn(-c2ccc(C(F)(F)F)cn2)cc1CCCOc1cc(CCC(=O)O)n(C(C)C)n1 [Example 263, 3-[1-isopropyl-3-(3-{3-isopropyl-1-[5-(trifluoromethyl)-2-pyridyl]-1H-pyrazol-4-yl}propoxy)-1H-pyrazol-5-yl]propanoic acid]
158 to 159 °C | COc1cccc(CC(=O)O)c1OCCCc1cn(-c2ccc(NC(C)=O)cn2)nc1C(C)C [Example 265, (2-{3-[1-(5-acetylamino-2-pyridyl)-3-isopropyl-1H-pyrazol-4-yl]propoxy}-3-methoxyphenyl)acetic acid]
147 to 148 °C | CCC(=O)Nc1ccc(-n2cc(CCCOc3c(CC(=O)O)cccc3OC)c(C(C)C)n2)nc1 [Example 266, (3-methoxy-2-{3-[3-isopropyl-1-(5-propanoylamino-2-pyridyl)-1H-pyrazol-4-yl]propoxy}phenyl)acetic acid]
119 to 120 °C | CCCC(=O)Nc1ccc(-n2cc(CCCOc3c(CC(=O)O)cccc3OC)c(C(C)C)n2)nc1 [Example 267, (2-{3-[1-(5-butyrylamino-2-pyridyl)-3-isopropyl-1H-pyrazol-4-yl]propoxy}-3-methoxyphenyl)acetic acid]
122 to 123 °C | COc1cccc(CC(=O)O)c1OCCCc1cn(-c2ccc(NC(=O)C(C)C)cn2)nc1C(C)C [Example 268, [3-methoxy-2-(3-{3-isopropyl-1-[5-(2-methylpropanoylamino)-2-pyridyl]-1H-pyrazol-4-yl}propoxy)phenyl]acetic acid]
176 to 177 °C | COc1cccc(CC(=O)O)c1OCCCc1cn(-c2ccc(NS(C)(=O)=O)cn2)nc1C(C)C [Example 269, (3-methoxy-2-{3-[3-isopropyl-1-(5-methylsulfonylamino-2-pyridyl)-1H-pyrazol-4-yl]propoxy}phenyl)acetic acid]
103 to 104 °C | CCc1cnc(-n2cc(CCCOc3c(CC(=O)O)cccc3OC)c(C(C)C)n2)nc1 [Example 276, (2-{3-[1-(5-ethylpyrimidin-2-yl)-3-isopropyl-1H-pyrazol-4-yl]propoxy}-3-methoxyphenyl)acetic acid]
143 to 144 °C | Cc1nn(-c2ccc(C(F)(F)F)cn2)cc1CCCOc1cc(CC(=O)O)n(C)n1 [Example 283, [1-methyl-3-(3-{3-methyl-1-[5-(trifluoromethyl)-2-pyridinyl]-1H-pyrazol-4-yl}propoxy)-1H-pyrazol-5-yl]acetic acid]
156 to 158 °C | CCOc1nn(-c2ccc(C(F)(F)F)cn2)cc1CCOc1cc(CC(=O)O)n(C)n1 [Example 284, [3-(2-{3-ethoxy-1-[5-(trifluoromethyl)-2-pyridinyl]-1H-pyrazol-4-yl}ethoxy)-1-methyl-1H-pyrazol-5-yl]acetic acid]
79 to 81 °C | CCOc1cc(OCCCc2cn(-c3cc(C(F)(F)F)ccn3)nc2OCC)ccc1CCC(=O)OC [Example 285, methyl 3-[2-ethoxy-4-(3-{3-ethoxy-1-[4-(trifluoromethyl)-2-pyridinyl]-1H-pyrazol-4-yl}propoxy)phenyl]propanoate]
128 to 130 °C | CCOc1nn(-c2cc(C(F)(F)F)ccn2)cc1CCCOc1cccc(CC(=O)O)c1 [Example 286, [3-(3-{3-ethoxy-1-[4-(trifluoromethyl)-2-pyridinyl]-1H-pyrazol-4-yl}propoxy)phenyl]acetic acid]
111 to 112 °C | CCOc1nn(-c2cc(C(F)(F)F)ccn2)cc1CCCOc1ccc(CCC(=O)O)cc1OC [Example 287, 3-[4-(3-{3-ethoxy-1-[4-(trifluoromethyl)-2-pyridinyl]-1H-pyrazol-4-yl}propoxy)-3-methoxyphenyl]propanoic acid]
